These results are taken from patent US5866118A, “Polypeptides having 3g6-phytase activity from thermomyces and nucleic acids encoding same” (Novo Nordisk Biotech, Inc., priority 1997, dated 1999).

Data set [1] concerns Thermomyces lanuginosus CBS 586.94 phytase, purified recombinant, SEQ ID NO:2. Description: Steady-state kinetics by substrate titration, assay of inorganic phosphate liberated from corn phytic acid. In kind it is biochemical. Here is the method: (§1) All characterizations were performed with the purified recombinant Thermomyces lanuginosus CBS 586.94 phytase described in Example 11. Comparisons were also made where noted with a standard of an Aspergillus niger (ficuum) phytase obtained from Novo Nordisk A/S, Bagsverd, Denmark.
(§2) Enzyme kinetics studies. Enzyme kinetics studies were performed on the Thermomyces phytase and the Aspergillus niger phytase. The studies were accomplished by assay of inorganic phosphate liberated from corn phytic acid (Sigma Chemical Co., St. Louis, Mo.). Standard enzyme reactions were carried out for 30 minutes at 37° C. and pH 5.5 in 0.5% w/w phytic acid. The reaction was quenched by the addition of an equal volume of 15% w/w trichloroacetic acid. After cooling, 100 μl of the resulting mixture was diluted into 1.0 ml of glass distilled water. The sample was incubated at 50° C. for 5 minutes. Color reagent (1.0 ml) was added and the 50° C. incubation was continued for 15 minutes. The absorbance of a 200 μl aliquot was measured at 690 nm with a Molecular Devices Thermomax Microplate Reader. The color reagent is composed of 6N sulfuric acid: water: 2.5% (w/v) ammonium heptamolybdate, tetrahydrate: 10% ascorbate (aqueous) in a ratio of 1:2:1:1 and prepared fresh on a daily basis. Quantitation was based on a standard curve generated with a 10 mM sodium monobasic phosphate standard. One unit U) is defined as a μmole of inorganic phosphate released per minute at 37° C. and pH 5.5.
Steady-state kinetics measurements were made by substrate titration. Phytate concentrations were 2.16, 1.08, 0.541, 0.216, 0.108, and 0.0758 mM for the purposes of Km determination. Phytate concentrations of 1.08, 0.541, 0.216 and 0.108 mM in the presence or absence of 1 mM sodium monobasic phosphate were used for the purpose of evaluating product inhibition.

The target in a further data set is T1, Aspergillus phytase (Aspergillus niger, UniProt P34752).
T1 sequence (P34752 24-467): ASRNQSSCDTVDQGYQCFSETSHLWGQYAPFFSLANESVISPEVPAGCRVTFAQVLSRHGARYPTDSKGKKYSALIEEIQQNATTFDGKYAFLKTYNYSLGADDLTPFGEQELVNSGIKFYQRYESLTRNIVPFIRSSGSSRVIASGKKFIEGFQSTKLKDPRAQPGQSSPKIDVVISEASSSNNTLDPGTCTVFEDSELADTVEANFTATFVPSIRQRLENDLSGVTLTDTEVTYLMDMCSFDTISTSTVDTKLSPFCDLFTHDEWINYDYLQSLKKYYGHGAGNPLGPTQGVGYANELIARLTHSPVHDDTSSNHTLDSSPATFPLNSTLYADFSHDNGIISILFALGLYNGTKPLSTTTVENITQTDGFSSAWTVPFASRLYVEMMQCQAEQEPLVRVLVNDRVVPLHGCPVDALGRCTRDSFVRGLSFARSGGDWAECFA
The following applies: Ullah, 1988, Preparative Biochemistry 18: 443-458; read-out: Ki (phosphate, competitive inhibitor); cited from earlier work.

Substrate in data set [2]: O=P(O)(O)O[C@H]1[C@H](OP(=O)(O)O)[C@@H](OP(=O)(O)O)[C@H](OP(=O)(O)O)[C@@H](OP(=O)(O)O)[C@H]1OP(=O)(O)O
Description: Steady-state kinetics by substrate titration, assay of inorganic phosphate liberated from corn phytic acid. It counts as biochemical, Aspergillus niger (ficuum). Conditions: other: 37° C., pH 5.5, phytate 0.0758-2.16 mM. As to the method:
as §1
as §2, with “One unit U) is defined as a μmole of inorganic phosphate released per minute at 37° C. and pH 5.5.” left out

The term Ki denotes a measure of affinity in units of concentration, obtained from inhibition or displacement. In the case of `O=P([O-])(O)O.[Na+]` [phosphate, sodium monobasic phosphate], in data set [1] (1 mM sodium monobasic phosphate, phytate 0.108-1.08 mM), the “product inhibition with 1 mM phosphate present” value is “failed to reveal any type of inhibition”. Besides, the Ki in data set [1] (estimated, phytate 0.108-1.08 mM with or without 1 mM sodium monobasic phosphate) was above 3000 µM; at Aspergillus phytase, 1900 µM. A word on the Km: it is the substrate concentration at which the rate is half of its maximum. Regarding `O=P(O)(O)O[C@H]1[C@H](OP(=O)(O)O)[C@@H](OP(=O)(O)O)[C@H](OP(=O)(O)O)[C@@H](OP(=O)(O)O)[C@H]1OP(=O)(O)O` [phytate, myo-inositol hexakisphosphate], the Michaelis constant (Km) in data set [1] (37° C., pH 5.5, phytate 0.0758-2.16 mM, read-out: apparent Km with respect to phytate) is around 110 µM.

B1: Aspergillus niger (ficuum) phytase, standard obtained from Novo Nordisk A/S (Aspergillus niger) (protein)
chain: T1 sequence (P34752 24-467)
notes: purchased Novo Nordisk A/S, Bagsverd, Denmark
Take B1: the Km in data set [2] is 200 µM.
